Test results reported in ChEMBL document CHEMBL1201862, “PubChem BioAssay data set” (2004).
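48-hour exposure; five concentrations; linearly interpolated endpoints. The concentration for 50% growth inhibition is given as GI50.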 The source made the active and inactive calls. Cut-off read from the data, not from the text of the source: active = GI50 up to about 1.1 µM and inactive = higher.

Assays:
Assay in all cases: growth of human tumour cells (NCI), 48 h
SF-539 = system: SF-539
SR = system: SR
BT-549 = system: BT-549
LOX IMVI = system: LOX IMVI
SK-OV-3 = system: SK-OV-3
A549 = system: A549
SK-MEL-28 = system: SK-MEL-28
RPMI-8226 = system: RPMI-8226
MDA-N = system: MDA-N
SNB-19 = system: SNB-19
OVCAR-8 = system: OVCAR-8
UO-31 = system: UO-31
COLO 205 = system: COLO 205
HL-60 = system: HL-60
SW-620 = system: SW-620
NCI-H23 = system: NCI-H23
DLD-1 = system: DLD-1
M19-MEL = system: M19-MEL
DMS-273 = system: DMS-273

Measured: GI50

Cc1c(C)c(C)c(-n2c(=O)n(C)c(=O)n2-n2c(=O)n(C)c(=O)n2-c2c(C)c(C)c(C)c(C)c2C)c(C)c1C
inactive: SF-539 > 100 µM | SR 20.5 µM | BT-549 > 100 µM | LOX IMVI 92.5 µM | SK-OV-3 > 100 µM | A549 > 100 µM | SK-MEL-28 > 100 µM | RPMI-8226 > 100 µM | MDA-N > 100 µM | SNB-19 > 100 µM | OVCAR-8 > 100 µM | UO-31 > 100 µM | COLO 205 > 100 µM | HL-60 12.1 µM | SW-620 > 100 µM

N=C1N(S(=O)(=O)c2ccccc2)[C@@H](Cc2ccccc2)[C@H](c2ccccc2)C1(c1ccccc1)c1ccccc1
inactive: SF-539 > 100 µM | SR 41.3 µM | BT-549 > 100 µM | LOX IMVI > 100 µM | SK-OV-3 > 100 µM | A549 > 100 µM | SK-MEL-28 > 100 µM | RPMI-8226 14 µM | MDA-N > 100 µM | SNB-19 > 100 µM | NCI-H23 41.4 µM | OVCAR-8 41 µM | UO-31 8.55 µM | COLO 205 80.7 µM | HL-60 4.12 µM | SW-620 > 100 µM

COc1cc(-c2cc(=O)c3c(OC)c(OC)c(OC)c(OC)c3o2)c(OC)c(OC)c1OC
inactive: SF-539 47.8 µM | SR 27.4 µM | BT-549 17.6 µM | LOX IMVI 32.1 µM | SK-OV-3 76.7 µM | A549 48.1 µM | SK-MEL-28 42.5 µM | RPMI-8226 24.5 µM | MDA-N 41.4 µM | SNB-19 98.6 µM | OVCAR-8 28.6 µM | UO-31 21.6 µM | COLO 205 45.8 µM | HL-60 46.7 µM | SW-620 45.3 µM

Nc1ncnc2c1ncn2C1OC(CSC(F)(F)F)C(O)C1O (centres undefined)
inactive: DLD-1 > 100 µM | SF-539 > 100 µM | LOX IMVI > 100 µM | SK-OV-3 > 100 µM | A549 > 100 µM | M19-MEL > 100 µM | SK-MEL-28 > 100 µM | RPMI-8226 > 100 µM | NCI-H23 > 100 µM | OVCAR-8 > 100 µM | UO-31 > 100 µM | COLO 205 > 100 µM | HL-60 > 100 µM | DMS-273 > 100 µM | SW-620 > 100 µM

COC(=O)[C@@]12CC[C@]1(C(=O)OC)C1C(C)=CC(=O)O[C@@]12C (some centres undefined)
inactive: SF-539 > 100 µM | SR > 100 µM | BT-549 > 100 µM | LOX IMVI > 100 µM | SK-OV-3 > 100 µM | A549 > 100 µM | SK-MEL-28 > 100 µM | RPMI-8226 > 100 µM | MDA-N > 100 µM | SNB-19 > 100 µM | NCI-H23 > 100 µM | OVCAR-8 > 100 µM | UO-31 > 100 µM | COLO 205 > 100 µM | HL-60 > 100 µM | SW-620 > 100 µM

O=C(Sc1n[nH]c(=O)[nH]c1=O)c1cccc2nc3ccccc3nc12
inactive: SF-539 35.6 µM | SR > 100 µM | BT-549 8.36 µM | LOX IMVI 18.5 µM | SK-OV-3 > 100 µM | A549 4.05 µM | SK-MEL-28 30.7 µM | RPMI-8226 78.5 µM | MDA-N 11.8 µM | SNB-19 > 100 µM | NCI-H23 3.78 µM | OVCAR-8 > 100 µM | COLO 205 2.44 µM | HL-60 > 100 µM | SW-620 41.2 µM

O=C1NC(=O)C(C(CC(=O)c2ccc([N+](=O)[O-])cc2)c2ccccc2)C(=O)N1 (centres undefined)
inactive: SF-539 > 100 µM | SR 40 µM | BT-549 > 100 µM | LOX IMVI 20 µM | SK-OV-3 > 100 µM | A549 97.3 µM | SK-MEL-28 > 100 µM | RPMI-8226 31.3 µM | MDA-N 27.2 µM | SNB-19 24.8 µM | NCI-H23 20.7 µM | OVCAR-8 > 100 µM | UO-31 > 100 µM | COLO 205 > 100 µM | HL-60 > 100 µM | SW-620 29.2 µM

CC(C)(C)OC(=O)NC(CS(=O)(=O)O)C(=O)O (centres undefined)
inactive: SF-539 > 100 µM | SR > 100 µM | BT-549 > 100 µM | LOX IMVI > 100 µM | SK-OV-3 > 100 µM | A549 > 100 µM | SK-MEL-28 > 100 µM | RPMI-8226 > 100 µM | MDA-N > 100 µM | SNB-19 > 100 µM | NCI-H23 > 100 µM | OVCAR-8 > 100 µM | UO-31 > 100 µM | COLO 205 > 100 µM | HL-60 > 100 µM | SW-620 > 100 µM
